Measured values reported in PubChem BioAssay (NCI).
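Each compound was tested at five concentrations against cells in 96-well plates for 48 hours. TGI is the concentration that stops growth completely.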

Assays:
Assay in all cases: NCI-60 cell line screen, 48 h
T-47D breast = system: T-47D breast
HCC-2998 colon = system: HCC-2998 colon
HOP-92 NSCLC = system: HOP-92 NSCLC
OVCAR-4 ovarian = system: OVCAR-4 ovarian
MOLT-4 leukemia = system: MOLT-4 leukemia
SK-MEL-2 melanoma = system: SK-MEL-2 melanoma
UO-31 renal = system: UO-31 renal
NCI-H460 lung = system: NCI-H460 lung
SF-268 CNS = system: SF-268 CNS
SK-MEL-28 melanoma = system: SK-MEL-28 melanoma
HL-60(TB) leukemia = system: HL-60(TB) leukemia
SF-539 CNS = system: SF-539 CNS
NCI-H522 lung = system: NCI-H522 lung
UACC-62 melanoma = system: UACC-62 melanoma
SNB-19 CNS = system: SNB-19 CNS
RXF 393 renal = system: RXF 393 renal
BT-549 breast = system: BT-549 breast

SMILES	TGI (T-47D breast) [µM]	TGI (HCC-2998 colon) [µM]	TGI (HOP-92 NSCLC) [µM]	TGI (OVCAR-4 ovarian) [µM]	TGI (MOLT-4 leukemia) [µM]	TGI (SK-MEL-2 melanoma) [µM]	TGI (UO-31 renal) [µM]	TGI (NCI-H460 lung) [µM]	TGI (SF-268 CNS) [µM]	TGI (SK-MEL-28 melanoma) [µM]	TGI (HL-60(TB) leukemia) [µM]	TGI (SF-539 CNS) [µM]	TGI (NCI-H522 lung) [µM]	TGI (UACC-62 melanoma) [µM]	TGI (SNB-19 CNS) [µM]	TGI (RXF 393 renal) [µM]	TGI (BT-549 breast) [µM]
CCOC(=O)N(C)C(=C(F)F)C(F)(F)F	92.1	37.7	65.2	90.8	51.6	44.5	> 100	> 100	97.4	> 100	49.7	78.3	–	–	–	–	–
Cc1nc(N)c(-c2ccccc2)s1	–	> 100	> 100	> 100	> 100	> 100	> 100	> 100	> 100	> 100	> 72.9	> 100	> 100	> 100	> 100	> 68.9	–
COc1cc(OC)c2c(=O)c3c([N+](=O)[O-])cccc3n(C)c2c1	–	> 100	> 100	> 100	> 100	> 100	> 100	> 100	> 100	> 100	> 100	> 100	> 100	> 100	> 100	> 100	–
Cc1cc(S(=O)(=O)NC2=NCCN2Cc2ccccc2)c(S)cc1Cl	–	> 100	–	> 100	> 100	> 100	–	> 100	> 100	> 100	> 100	> 100	> 100	> 100	> 100	–	> 100
CCCCCCSCC/C(C)=N\OC	–	> 100	> 100	> 100	> 100	> 100	> 100	> 100	> 100	> 100	> 100	> 100	> 100	> 100	> 100	> 100	> 100
O=C(c1ccccc1)c1ccc2c(c1)nc1n2C(c2c(F)cccc2F)SC1 (stereo not given)	43.5	> 100	> 100	> 100	–	62.4	54.8	> 100	> 100	> 100	–	> 100	> 100	72.2	> 100	> 100	> 100
N#C/C(=C\c1cc(O)ccc1O)C(N)=O	–	> 100	> 100	> 100	60.1	> 100	> 100	> 100	> 100	> 100	34.6	> 100	41	88.1	> 100	86.6	–
CCCCCCCCCCCCCCCCc1c(C(=O)OC)nc(NN)[nH]c1=O	–	> 50	> 50	> 50	> 50	> 50	> 50	> 50	> 50	> 50	> 50	> 50	> 50	> 50	> 50	> 50	–
C=C1C(=O)O[C@H]2C/C(C)=C/CC[C@]3(C)CCC[C@](C)(CC[C@@H]12)O3	25.9	14.5	15.2	43.7	15.7	17.9	15.7	16.9	16.3	15.8	–	20.7	13	24.4	> 50	18.4	–
C[C@@H]1CCC2C(C)(C)C(/C=C\C=O)C3(C)OC213 (stereo not given in full)	–	78.4	93.9	> 100	86.9	> 100	> 100	> 100	> 100	> 100	–	–	> 100	> 100	> 100	> 100	> 100
CCOC(=O)CCC(NC(=O)c1ccc(N=Cc2nc3ccccc3nc2-c2ccccc2)cc1)C(=O)OCC (stereo not given)	–	> 100	> 100	> 100	> 100	> 100	> 100	> 100	> 100	> 100	> 100	> 100	> 100	> 100	> 100	> 100	–
COc1cc2c(cc1O)CN1CCC23C=C[C@@H](O)CC13 (stereo not given in full)	–	> 100	> 100	> 100	> 100	> 100	> 100	> 100	> 100	> 100	38	–	> 100	> 100	> 100	> 100	–
[N-]=[N+]=Nc1ccc2c(c1)Sc1ccccc1N2CCCCN1CCN(Cc2ccc(C(=O)c3ccc(CSCC(N)C(=O)O)cc3)cc2)CC1 (stereo not given)	–	59.2	38.2	> 100	> 100	48.1	> 100	> 100	> 100	3.8	30.8	–	33.7	24.4	–	> 100	40.1
C/C(=N/NC(=O)C[n+]1ccccc1)C(CN(CC(C)C)CC(C)C)C(=O)Nc1ccc(C)cc1C (stereo not given)	–	> 100	> 100	> 100	> 100	> 100	82.8	> 100	> 100	> 100	> 100	> 100	> 100	> 100	> 100	> 100	–
CN(C)/C=N\c1nncc2[nH]cnc12	> 100	> 100	> 100	> 100	> 100	> 100	> 100	–	–	> 100	–	> 100	> 100	> 100	–	–	> 100
